Reference: US20260232759A1, “PEPTIDES THAT INHIBIT INFECTION BY SARS-COV-2, THE VIRUS THAT CAUSES COVID-19 DISEASE” (Wisconsin Alumni Research Foundation, priority 2021, published 2026)
Starred links: 1 amine or outer side, 2 acyl side, 3 side chain; linkers in the order of their positions; H or OH if unused. Non-standard residues stand in square brackets, D forms with d. *: point of attachment. X2 = CC(C)CCC[C@@H](C)[C@H]1CC[C@H]2[C@@H]3CC=C4C[C@@H](OC(=O)CCOCCOCCOCCOCCNC(=O)C*)CC[C@]4(C)[C@H]3CC[C@]12C; X1 = O=C([C@H]1CNC[C@@H]1N[*:1])[*:2]; β3hE = N[C@@H](CCC(=O)O)CC(=O)O; β3hQ = NC(=O)CC[C@H](N)CC(=O)O; β3hD = NC(CC(=O)O)CC(=O)O; βAla = NCCC(=O)O

Molecular target: T1, SARS-CoV-2 S (Severe acute respiratory syndrome coronavirus 2, UniProt P0DTC2)
T1 construct: expressed in transfected cells
Experiment: β-Gal complementation-based cell-cell fusion assay (S-protein-mediated fusion)
Conditions: for IC90: read-out: 90% inhibitory concentration (IC90), inhibition of S-mediated fusion

[1] = 50% inhibitory concentration (IC50), inhibition of S-mediated fusion
[2] = IC50, inhibition of S-mediated fusion

Substance	IC50 [1] [nM]	IC90 [nM]	IC50 [2] [nM]
Ac-[β3hD]IS[β3hQ]INASVVNIEYEIKKLEEVA[X1]KLEESLI[β3hD]L[β3hQ]ELGSGSGC(X2)-NH2 [α/β-SARS2 HRC QE-6]	~20	~100	
Ac-[β3hD]IS[β3hQ]INASVVNIEYEI[X1]KLEEVAKKLEESLI[β3hD]L[β3hQ]ELGSGSGC(X2)-NH2 [α/β-SARS2 HRC QE-5]	~1000		
Ac-[β3hD]IS[β3hQ]INASVVNI[β3hE]YEI[X1]KLEEVA[X1]KLEESLI[β3hD]L[β3hQ]EL[βAla]SGS[βAla]C(X2)-NH2 [α/β-SARS2 HRC QE-15]			~50
Ac-[β3hD]IS[β3hQ]INASVVNIEYEI[X1]KLEEVA[X1]KLE[β3hE]SLI[β3hD]L[β3hQ]ELGSGSGC(X2)-NH2 [α/β-SARS2 HRC QE-8]	~100		
Ac-[β3hD]IS[β3hQ]INASVVNIEYEI[X1]KLEEVA[X1]KLEESLI[β3hD]L[β3hQ]ELGSGSGC(X2)-NH2 [α/β-SARS2 HRC QE-7]	~20	~100	~10
Ac-[β3hD]IS[β3hQ]INASVVNIEYEI[X1]KLEEVA[X1]KLEESLI[β3hD]L[β3hQ]EL[βAla]SGS[βAla]C(X2)-NH2 [α/β-SARS2 HRC QE-17]			~10
